Laboratory results published in patent US5219884A, “Immunosuppressant” (Taito Co., Ltd., priority 1990, dated 1993).
Read-outs that look alike come from different tables or passages of the source.

Assays:
[1] = tested on: MOLT4; experiment: cytotoxicity to tumor cell line MOLT4; assay type: cell-based, human
Protocol: (§1) Cytotoxicity to human tumor cell lines was examined as follows:
(§2) Cells of human cell lines, K562, MOLT4, U937, HL60, KATOIII, KB, PC-6, PC-14 and CCRF-CEM were separately suspended to the concentration of 2×10^5 cells/ml in the RPMI1640 culture medium supplemented with 20% FCS. Fifty μl of this suspension was added to each well of 96-well microculture plates to which 50 μl of the test solution had been added. After culturing at 37° C. in an atmosphere of 5% carbon dioxide for 72 hours, the absorbancy at 550 nm was measured in the same way as the colorimetry using MTT in Experimental Example 1, and the percent suppression was calculated in the same manner as in Experimental Example 14, which was used as the index of cytotoxicity.

[2] = cytotoxicity to tumor cell line MOLT4; assay type: cell-based, human; conditions: human, molt4 cells, read-out: Suppression
Protocol: as §1, §2

[3] = tested on: HL60; experiment: in vitro; assay type: cell-based, human
Protocol: as §1, §2

[4] = tested on: CCRF-CEM; experiment: in vitro; assay type: cell-based, human
Protocol: as §1, §2

[5] = tested on: PC-14; experiment: in vitro; assay type: cell-based, human
Protocol: as §1, §2

[6] = tested on: KB; experiment: in vitro; assay type: cell-based, human
Protocol: as §1, §2

[7] = tested on: U937; experiment: in vitro; assay type: cell-based, human
Protocol: as §1, §2

[8] = in vitro; assay type: cell-based, human; conditions: human, read-out: Suppression
Protocol: as §1, §2

[9] = tested on: K562; experiment: in vitro; assay type: cell-based, human
Protocol: as §1, §2

[10] = tested on: mouse L929 cells; experiment: cytotoxicity to mouse L929 cells; assay type: cell-based; conditions: 550 nm
Protocol: (§3) Cytotoxicity to mouse L929 cells was assayed as follows:
(§4) L929 cells were suspended to the concentration of 1.5×10^5 cells/ml in the F12 culture medium supplemented with 10% FCS. One hundred μl of the suspension was added to each well of 96-well microculture plates, and cultured at 37° C. in an atmosphere of 5% carbon dioxide for 24 hours, to which 100 μl of the test solution was added and cultured for further 48 hours. After the culture, 100 μl of the supernatant was removed and the absorbancy at 550 nm was measured in the same way as the colormetry using MTT in Experimental Example 1. The percent suppression was calculated by the following formula used as the index of cytotoxicity. [formula]

[11] = cytotoxicity to mouse L929 cells; assay type: cell-based; conditions: mouse, l929 cells, read-out: Suppression
Protocol: as §3, §4

[12] = tested on: mouse allogenic mixed lymphocyte reaction (BALB/c responder, C57BL/6 stimulator spleen cells); experiment: mouse allogenic mixed lymphocyte reaction (MLR), blastogenesis by 3H-thymidine uptake; assay type: cell-based; conditions: for inhibition at 0.001 µg/mL / inhibition at 0.01 µg/mL / inhibition at 0.1 µg/mL: Mus musculus, Lymphocyte, read-out: Suppression
Protocol: The immunosuppressive activity of the compounds (I) and their lactones was assayed by using mouse allogenic mixed lymphocyte reaction (hereinafter sometimes abbreviated as MLR). Mouse allogenic MLR was carried out by mixed culture of the BALB/c mouse (H-2^d) spleen cells as the responder cells and the mitomycin C-treated C57BL/6 (H-2^b) spleen cells as the stimulator cells in equal amounts.
The responder cells were prepared as follows: The spleen was resected from 5- to 6-week-old male BALB/c mice, and single cell suspension of spleen cells was prepared by using the RPMI1640 culture medium (containing 60 μg/ml of kanamycin sulfate, 2 mM of L-glutamine, 10 mM of N-2-hydroxyethylpiperazine-N'-2-ethanesulfonate (HEPES) and 0.1% sodium hydrogencarbonate) to which heat-inactivated fetal calf serum (hereinaftersometimes abbreviated as FCS) had been added to 5%. After hemolytic treatment, the cell suspension was adjusted to a concentration of 10^7 cells/ml by using the RPMI1640 culture medium supplemented with 10^-4 M 2-mercaptoethanol and 20% FCS, and was used as the responder cell suspension.
The stimulator cells were prepared as follows:
The spleen was resected from 5- to 6-week-old male C57BL/6 mice, and single cell suspension of spleen cells was prepared by using the RPMI1640 culture medium. After hemolytic treatment, the cells were treated with 40 μg/ml of mitomycin C at 37° C. for 60 minutes. After washing three times, the concentration of the cell suspension was adjusted to 10^7 cells/ ml by using the RPMI1640 culture medium supplemented with 10^-4 M 2-mercaptoethanol and 20% FCS, and was used as the stimulator cell suspension.
Fifty μl of the responder cell suspension, 50μl of the stimulator cell suspension prepared by the above method, and 100 μl of the test substance were placed in 96-well microculture plates, and were cultured at 37° C. in an atmosphere of 5% carbon dioxide for 4 days.
The blastogenesis of lymphocytes was assayed by a method of ^3 H-thymidine uptake as an index. That is, after termination of the culture, 0.5 μCi/well of ^3 H-thymidine was added and cultured for 4 hours. Cells were harvested by a cell-harvester, and the radioactivity incorporated into the cells was determined by a liquid scintillation counter to obtain the index of blastogenesis of lymphocytes in the mouse allogenic MLR. The suppression of the mouse allogenic MLR was evaluated by calculating the percent suppression by the following formula. [formula]
The test substance was dissolved in methanol or suspended in a mixture of methanol and acetic acid, and then diluted with the RPMI1640 culture medium.

CCCCCCC(=O)CCCCCCCCCC(O)C(O)C(N)(CO)C(=O)O (stereo not shown) [Example 5] showed an Absorbancy ([1]; 0.1 μg/ml) of 0.591, an Absorbancy ([1]; 1.0 μg/ml) of 0.588 and an Absorbancy ([1]; 10.0 μg/ml) of 0.508. The cytotoxicity at 72 h ([2]; 0.1 μg/ml) was 4.7%, the cytotoxicity at 72 h ([2]; 1.0 μg/ml) was 5.2% and the cytotoxicity at 72 h ([2]; 10.0 μg/ml) was 18.1%. For the same molecule, the Absorbancy ([3]; 0.1 μg/ml) was 0.593, the Absorbancy ([3]; 1.0 μg/ml) was 0.657 and the Absorbancy ([3]; 10.0 μg/ml) was 0.590. The Absorbancy ([4]; 0.1 μg/ml) was 0.485, the Absorbancy ([4]; 1.0 μg/ml) was 0.466 and the Absorbancy ([4]; 10.0 μg/ml) was 0.394. The Absorbancy ([5]; 0.1 μg/ml) was 0.420, the Absorbancy ([5]; 1.0 μg/ml) was 0.396 and the Absorbancy ([5]; 10.0 μg/ml) was 0.352. For the same molecule, the Absorbancy ([6]; 0.1 μg/ml) was 0.761, the Absorbancy ([6]; 1.0 μg/ml) was 0.734 and the Absorbancy ([6]; 10.0 μg/ml) was 0.711. For the same molecule, the Absorbancy ([7]; 0.1 μg/ml) was 0.462, the Absorbancy ([7]; 1.0 μg/ml) was 0.485 and the cytotoxicity at 72 h ([8]; ccrf-cem cells, 0.1 μg/ml) was 3.6%. The cytotoxicity at 72 h ([8]; ccrf-cem cells, 1.0 μg/ml) was 7.4%, the cytotoxicity at 72 h ([8]; ccrf-cem cells, 10.0 μg/ml) was 21.7% and the cytotoxicity at 72 h ([8]; hl60 cells, 0.1 μg/ml) was 20.5%. The cytotoxicity at 72 h ([8]; hl60 cells, 1.0 μg/ml) was 11.9%, the cytotoxicity at 72 h ([8]; hl60 cells, 10.0 μg/ml) was 20.9% and the cytotoxicity at 72 h ([8]; k562 cells, 0.1 μg/ml) was 1.6%. It also gave a cytotoxicity at 72 h ([8]; k562 cells, 1.0 μg/ml) of 3.1%, a cytotoxicity at 72 h ([8]; k562 cells, 10.0 μg/ml) of 6.7% and a cytotoxicity at 72 h ([8]; kb cells, 0.1 μg/ml) of 0%. The cytotoxicity at 72 h ([8]; kb cells, 1.0 μg/ml) was 0%, the cytotoxicity at 72 h ([8]; kb cells, 10.0 μg/ml) was 2.6% and the cytotoxicity at 72 h ([8]; pc-14 cells, 0.1 μg/ml) was 11.4%. It also gave a cytotoxicity at 72 h ([8]; pc-14 cells, 1.0 μg/ml) of 16.5%, a cytotoxicity at 72 h ([8]; pc-14 cells, 10.0 μg/ml) of 25.7% and a cytotoxicity at 72 h ([8]; u937 cells, 0.1 μg/ml) of 4.5%. The cytotoxicity at 72 h ([8]; u937 cells, 1.0 μg/ml) was 0%, the Absorbancy ([9]; 0.1 μg/ml) was 0.823 and the Absorbancy ([9]; 1.0 μg/ml) was 0.810. For the same molecule, the Absorbancy ([9]; 10.0 μg/ml) was 0.780, the Absorbancy ([10]; 0.1 μg/ml) was 0.775 and the Absorbancy ([10]; 1 μg/ml) was 0.805. It also gave an Absorbancy ([10]; 10 μg/ml) of 0.749, a cytotoxicity at 48 h ([11]; 0.1 μg/ml) of 0% and a cytotoxicity at 48 h ([11]; 1 μg/ml) of 0%. The cytotoxicity at 48 h ([11]; 10 μg/ml) was 0%, the 3H-thymidine uptake ([12]; 0.001 μg/ml) was 22321 cpm and the 3H-thymidine uptake ([12]; 0.01 μg/ml) was 8182 cpm. It also gave a 3H-thymidine uptake ([12]; 0.1 μg/ml) of 1952 cpm, an inhibition at 0.001 µg/mL ([12]; 0.001 μg/ml) of 23.5% and an inhibition at 0.01 µg/mL ([12]; 0.01 μg/ml) of 90.6%. For the same molecule, the inhibition at 0.1 µg/mL ([12]; 0.1 μg/ml) was 100%.

CCCCCCC(=O)CCCCCC/C=C/CC1OC(=O)C(CO)(NC(C)=O)C1O (stereo not shown) [Example 11] gave an Absorbancy ([1]; 0.1 μg/ml) of 0.182, an Absorbancy ([1]; 1.0 μg/ml) of 0.150 and an Absorbancy ([1]; 10.0 μg/ml) of 0.128. It also gave a cytotoxicity at 72 h ([2]; 0.1 μg/ml) of 0%, a cytotoxicity at 72 h ([2]; 1.0 μg/ml) of 0% and a cytotoxicity at 72 h ([2]; 10.0 μg/ml) of 11.7%. It also gave an Absorbancy ([3]; 0.1 μg/ml) of 0.475, an Absorbancy ([3]; 1.0 μg/ml) of 0.456 and an Absorbancy ([3]; 10.0 μg/ml) of 0.381. The Absorbancy ([4]; 0.1 μg/ml) was 0.694, the Absorbancy ([4]; 1.0 μg/ml) was 0.663 and the Absorbancy ([4]; 10.0 μg/ml) was 0.603. For the same molecule, the Absorbancy ([5]; 0.1 μg/ml) was 0.443, the Absorbancy ([5]; 1.0 μg/ml) was 0.413 and the Absorbancy ([5]; 10.0 μg/ml) was 0.284. It also gave an Absorbancy ([6]; 0.1 μg/ml) of 0.679, an Absorbancy ([6]; 1.0 μg/ml) of 0.688 and an Absorbancy ([6]; 10.0 μg/ml) of 0.510. It also gave an Absorbancy ([7]; 0.1 μg/ml) of 0.598, an Absorbancy ([7]; 1.0 μg/ml) of 0.583 and an Absorbancy ([7]; 10.0 μg/ml) of 0.449. It also gave a cytotoxicity at 72 h ([8]; ccrf-cem cells, 0.1 μg/ml) of 0%, a cytotoxicity at 72 h ([8]; ccrf-cem cells, 1.0 μg/ml) of 4.2% and a cytotoxicity at 72 h ([8]; ccrf-cem cells, 10.0 μg/ml) of 12.9%. It also gave a cytotoxicity at 72 h ([8]; hl60 cells, 0.1 μg/ml) of 9%, a cytotoxicity at 72 h ([8]; hl60 cells, 1.0 μg/ml) of 12.6% and a cytotoxicity at 72 h ([8]; hl60 cells, 10.0 μg/ml) of 27%. It also gave a cytotoxicity at 72 h ([8]; k562 cells, 0.1 μg/ml) of 17.7%, a cytotoxicity at 72 h ([8]; k562 cells, 1.0 μg/ml) of 12.5% and a cytotoxicity at 72 h ([8]; k562 cells, 10.0 μg/ml) of 34.5%. It also gave a cytotoxicity at 72 h ([8]; kb cells, 0.1 μg/ml) of 7%, a cytotoxicity at 72 h ([8]; kb cells, 1.0 μg/ml) of 5.8% and a cytotoxicity at 72 h ([8]; kb cells, 10.0 μg/ml) of 30.1%. The cytotoxicity at 72 h ([8]; pc-14 cells, 0.1 μg/ml) was 6.5%, the cytotoxicity at 72 h ([8]; pc-14 cells, 1.0 μg/ml) was 12.7% and the cytotoxicity at 72 h ([8]; pc-14 cells, 10.0 μg/ml) was 40%. For the same molecule, the cytotoxicity at 72 h ([8]; u937 cells, 0.1 μg/ml) was 0%, the cytotoxicity at 72 h ([8]; u937 cells, 1.0 μg/ml) was 0% and the cytotoxicity at 72 h ([8]; u937 cells, 10.0 μg/ml) was 23%. The Absorbancy ([9]; 0.1 μg/ml) was 0.317, the Absorbancy ([9]; 1.0 μg/ml) was 0.337 and the Absorbancy ([9]; 10.0 μg/ml) was 0.257. It also gave an Absorbancy ([10]; 1 μg/ml) of 0.710, an Absorbancy ([10]; 10 μg/ml) of 0.669 and an Absorbancy ([10]; 100 μg/ml) of 0.047. It also gave a cytotoxicity at 48 h ([11]; 1 μg/ml) of 0%, a cytotoxicity at 48 h ([11]; 10 μg/ml) of 0% and a cytotoxicity at 48 h ([11]; 100 μg/ml) of 91.8%. The 3H-thymidine uptake ([12]; 0.001 μg/ml) was 32597 cpm, the 3H-thymidine uptake ([12]; 0.01 μg/ml) was 30777 cpm and the 3H-thymidine uptake ([12]; 0.1 μg/ml) was 23430 cpm. For the same molecule, the inhibition at 0.001 µg/mL ([12]; 0.001 μg/ml) was 0%, the inhibition at 0.01 µg/mL ([12]; 0.01 μg/ml) was 0% and the inhibition at 0.1 µg/mL ([12]; 0.1 μg/ml) was 18.2%.
